{
  "source": "ChEMBL document CHEMBL1201862",
  "about": "“PubChem BioAssay data set” (2004)",
  "key": {"HeLa": {"system": "HeLa", "assay": "Cytotoxicity counterscreen assay for transcriptional activators of heat shock protein 70 (Hsp70). [Related pubchem assays: 1203, 1252 ]", "format": "functional", "conditions": "Homo sapiens"}, "[1]": {"assay": "CellTiter-Glo luminescence survival assay, SW480 colon tumor line, concentration-response curve, half-maximal inhibitory concentration (AID 1117338)", "format": "functional"}, "[2]": {"assay": "RKO cell viability reduction, dose response, CellTiter-Glo luminescence (AID 1117322)", "format": "functional"}, "[3]": {"assay": "cytotoxicity toward HCT116 cells – cell-based, CellTiter-Glo luminescence, IC50, dose response (AID 1117332)", "format": "functional", "conditions": "HCT-116"}, "[4]": {"assay": "SNU-C1 cell viability reduction, dose response, CellTiter-Glo luminescence (AID 1117323)", "format": "functional, cell-based"}, "[5]": {"assay": "cytotoxicity toward Colo320 cells – cell-based, CellTiter-Glo luminescence, IC50, dose response (AID 1117334)", "format": "functional", "conditions": "COLO 320"}, "[6]": {"assay": "cytotoxicity toward HT-29 cells – cell-based, CellTiter-Glo luminescence, IC50, dose response (AID 1117330)", "format": "functional"}, "[7]": {"assay": "Reduced DLD-1 viability, concentration-response, CellTiter-Glo luminescence (AID 1117352)", "format": "functional"}, "[8]": {"assay": "HCT116 cell viability decrease, GSK3B pretreatment – CellTiter-Glo, IC50, dose response (AID 1117339)", "format": "functional", "conditions": "HCT-116"}, "[9]": {"target": "Aryl hydrocarbon receptor (Homo sapiens, UniProt P35869)", "sequence (P35869 whole entry)": "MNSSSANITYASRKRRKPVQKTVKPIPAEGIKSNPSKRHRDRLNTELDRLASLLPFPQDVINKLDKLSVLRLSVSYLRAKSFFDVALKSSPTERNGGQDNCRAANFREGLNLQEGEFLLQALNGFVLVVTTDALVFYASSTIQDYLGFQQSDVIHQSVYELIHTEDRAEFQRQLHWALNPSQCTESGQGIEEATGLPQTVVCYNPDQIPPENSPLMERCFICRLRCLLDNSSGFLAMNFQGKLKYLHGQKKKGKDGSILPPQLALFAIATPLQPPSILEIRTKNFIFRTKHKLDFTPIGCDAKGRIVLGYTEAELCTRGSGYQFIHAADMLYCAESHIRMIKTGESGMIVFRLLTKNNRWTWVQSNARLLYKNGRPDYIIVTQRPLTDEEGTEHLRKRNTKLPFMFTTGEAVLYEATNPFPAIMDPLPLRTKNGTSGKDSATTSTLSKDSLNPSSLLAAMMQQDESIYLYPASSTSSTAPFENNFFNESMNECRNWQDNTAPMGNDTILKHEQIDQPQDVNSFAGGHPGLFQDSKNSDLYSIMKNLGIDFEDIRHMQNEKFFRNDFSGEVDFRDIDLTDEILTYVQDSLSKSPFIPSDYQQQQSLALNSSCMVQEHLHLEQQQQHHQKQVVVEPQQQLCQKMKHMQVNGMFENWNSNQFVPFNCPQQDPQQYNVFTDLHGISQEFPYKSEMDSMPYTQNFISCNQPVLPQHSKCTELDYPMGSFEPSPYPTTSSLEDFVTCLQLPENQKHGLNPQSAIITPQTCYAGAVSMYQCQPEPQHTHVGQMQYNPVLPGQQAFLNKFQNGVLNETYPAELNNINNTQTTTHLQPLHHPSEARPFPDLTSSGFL", "assay": "Luminescence-based cell-based high throughput dose response assay for activators of the Aryl Hydrocarbon Receptor (AHR). [Related pubchem assays: 2796 (Primary screen (AHR activators in singlicate)), 2845 (Confirmation screen (AHR activators in triplicate)), 434939 (Counterscreen (PXR activators in triplicate)), 2804 (Summary (AHR activators))]", "format": "ADME"}, "[10]": {"assay": "viability loss in THP-1 monocytes – THP-1 cells, cytotoxicity control for Vif-APOBEC3G degradation inhibitor project, dose response (AID 1117359)", "format": "functional", "conditions": "THP-1"}, "Danio rerio": {"system": "Danio rerio", "assay": "In Vivo Angiogenesis Dose-Response Confirmation. [Related pubchem assays: 732 (Assay preceding this confirmatory assay.)]", "format": "functional, organism-based"}, "[11]": {"assay": "viability loss in Vero cells – cytotoxicity control for Vif-APOBEC3G degradation inhibitor project, dose response (AID 1117358)", "format": "functional", "conditions": "Vero"}, "Leucine aminopeptidase": {"target": "T1, Leucine aminopeptidase (Plasmodium falciparum 3D7, UniProt Q8IL11)", "T1 sequence (Q8IL11 whole entry)": "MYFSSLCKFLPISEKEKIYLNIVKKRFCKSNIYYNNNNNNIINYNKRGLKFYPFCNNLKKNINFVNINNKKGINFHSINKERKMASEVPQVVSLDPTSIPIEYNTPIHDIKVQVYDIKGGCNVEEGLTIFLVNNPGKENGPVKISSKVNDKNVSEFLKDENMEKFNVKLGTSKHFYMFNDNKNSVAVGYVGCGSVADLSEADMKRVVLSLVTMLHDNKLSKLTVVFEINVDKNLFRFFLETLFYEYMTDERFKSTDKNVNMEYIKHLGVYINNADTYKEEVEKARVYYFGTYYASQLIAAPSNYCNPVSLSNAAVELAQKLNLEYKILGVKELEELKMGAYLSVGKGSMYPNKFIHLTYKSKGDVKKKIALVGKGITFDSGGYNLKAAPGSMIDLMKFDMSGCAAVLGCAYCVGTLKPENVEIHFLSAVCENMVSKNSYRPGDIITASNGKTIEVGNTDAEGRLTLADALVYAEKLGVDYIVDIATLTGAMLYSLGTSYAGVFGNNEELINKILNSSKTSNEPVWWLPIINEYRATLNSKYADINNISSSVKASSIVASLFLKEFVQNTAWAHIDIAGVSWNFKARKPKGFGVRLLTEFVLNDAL", "assay": "P. falciparum M17LAP inhibitors, primary screen, biochemical, fluorogenic H-Leu-NHMec substrate, 1536-well (AID 1619)", "format": "functional"}, "Aspartyl aminopeptidase": {"target": "Aspartyl aminopeptidase (Plasmodium falciparum 3D7, UniProt Q8I2J3)", "sequence (Q8I2J3 whole entry)": "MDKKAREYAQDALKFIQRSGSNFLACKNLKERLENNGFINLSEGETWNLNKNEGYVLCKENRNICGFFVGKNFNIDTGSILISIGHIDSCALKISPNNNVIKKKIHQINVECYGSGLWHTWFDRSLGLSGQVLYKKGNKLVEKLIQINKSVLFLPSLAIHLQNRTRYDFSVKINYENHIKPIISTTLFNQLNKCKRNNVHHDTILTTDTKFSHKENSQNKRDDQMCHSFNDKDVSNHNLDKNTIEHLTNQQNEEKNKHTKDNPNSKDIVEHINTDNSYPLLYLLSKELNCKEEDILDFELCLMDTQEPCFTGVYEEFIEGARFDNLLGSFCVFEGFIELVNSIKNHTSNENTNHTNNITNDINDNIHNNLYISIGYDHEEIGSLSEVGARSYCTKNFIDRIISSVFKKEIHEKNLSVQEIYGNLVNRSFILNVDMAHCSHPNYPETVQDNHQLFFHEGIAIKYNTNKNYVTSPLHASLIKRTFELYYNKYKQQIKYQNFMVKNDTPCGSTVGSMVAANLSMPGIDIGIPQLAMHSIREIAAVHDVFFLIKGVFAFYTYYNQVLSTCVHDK", "assay": "Counterscreen for inhibitors of M1 and M17 aminopeptidases: QFRET-based biochemical high throughput dose response assay for inhibitors of the Plasmodium falciparum M18 Aspartyl Aminopeptidase (PFM18AAP). [Related PubChem assays: 1619 (Screening assay (M17LAP inhibitors).), 1445 (Screening assay (M1AAP inhibitors).)]"}, "[12]": {"assay": "A cytotoxicity screen of small molecule inhibitors of the PhoP region in Salmonella typhi identified in the primary screen. [Related pubchem assays: 1850, 1864, 1985 ]", "format": "functional"}, "Procathepsin L": {"target": "Procathepsin L (Homo sapiens, UniProt P07711)", "sequence (P07711 whole entry)": "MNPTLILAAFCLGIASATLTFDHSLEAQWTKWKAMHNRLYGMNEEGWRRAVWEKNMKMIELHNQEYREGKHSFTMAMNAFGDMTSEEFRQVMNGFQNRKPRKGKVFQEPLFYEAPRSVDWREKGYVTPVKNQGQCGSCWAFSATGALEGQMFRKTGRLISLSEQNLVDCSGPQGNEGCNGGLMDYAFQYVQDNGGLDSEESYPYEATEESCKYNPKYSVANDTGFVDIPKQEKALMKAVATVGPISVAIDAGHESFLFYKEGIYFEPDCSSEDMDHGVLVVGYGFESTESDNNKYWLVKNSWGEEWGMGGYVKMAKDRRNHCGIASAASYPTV", "assay": "CTSL1 protease inhibition – biochemical, QFRET, 1536-well, counter-screen for M1/M17 aminopeptidase inhibitor project, dose response (AID 2214)"}, "[13]": {"assay": "HPDE-C7 pancreatic duct cell viability loss – fluorescence, HTS (AID 430)", "format": "functional, cell-based", "conditions": "Homo sapiens"}, "[14]": {"assay": "viability loss of HPDE-C7K cells – cell-based, fluorescence, HTS, primary screen (AID 431)", "format": "functional", "conditions": "Homo sapiens"}},
  "note": "Active and inactive are the calls of the source.",
  "data": [
    {"smiles": "COCC(=O)Nc1cccc(Br)c1", "values": [
      {"measurement": "CC50", "setting": "HeLa", "value": "> 99 µM (not active)"}
    ]},
    {"smiles": "COc1ccc(CN2CCN(C(c3ccc(F)cc3)c3ccc(F)cc3)CC2)c(OC)c1OC", "values": [
      {"measurement": "IC50", "setting": "[1]", "value": "3.32 µM (active)"},
      {"measurement": "IC50", "setting": "[2]", "value": "3.7 µM (active)"},
      {"measurement": "IC50", "setting": "[3]", "value": "1.7 µM (active)"},
      {"measurement": "IC50", "setting": "[4]", "value": "0.443 µM (active)"},
      {"measurement": "IC50", "setting": "[5]", "value": "2.82 µM (active)"},
      {"measurement": "IC50", "setting": "[6]", "value": "2.93 µM (active)"},
      {"measurement": "IC50", "setting": "[7]", "value": "3.13 µM (active)"},
      {"measurement": "IC50", "setting": "[8]", "value": "2.77 µM (active)"}
    ]},
    {"smiles": "O=C(CN1CCOCC1)Nc1nc2ccc([N+](=O)[O-])cc2s1", "values": [
      {"measurement": "EC50", "setting": "[9]", "value": "2.61 µM (active)"}
    ]},
    {"smiles": "CCn1c(=O)oc2cc(NC(=O)CCl)ccc21", "values": [
      {"measurement": "CC50", "setting": "[10]", "value": "> 40 µM (active)"}
    ]},
    {"smiles": "Cc1cccc2c1NC(=O)/C2=C1\\Nc2ccccc2\\C1=N/O", "values": [
      {"measurement": "IC50", "setting": "Danio rerio", "value": "0.68 µM (active)"}
    ]},
    {"smiles": "Cc1ccc(Nc2nc(C(=O)NCc3ccco3)cs2)cc1", "values": [
      {"measurement": "CC50", "setting": "[11]", "value": "> 40 µM (active)"}
    ]},
    {"smiles": "O=C1/C(=C\\c2ccco2)CCC/C1=C\\c1ccco1", "values": [
      {"measurement": "CC50", "setting": "[10]", "value": "> 40 µM (active)"}
    ]},
    {"smiles": "Cc1ccc(C)c2sc(NC(=O)C3CC3)nc12", "values": [
      {"measurement": "EC50", "setting": "[9]", "value": "4.22 µM (active)"}
    ]},
    {"smiles": "COc1ccc(N=C(S)NCCc2ccccc2OC)c(OC)c1", "values": [
      {"measurement": "CC50", "setting": "[11]", "value": "> 40 µM (active)"}
    ]},
    {"smiles": "CCCCc1c(O)nc(SCC(=O)Nc2ccc3c(c2)CCC3)nc1O", "values": [
      {"measurement": "IC50", "setting": "Leucine aminopeptidase", "value": "7.61 µM (active)"},
      {"measurement": "IC50", "setting": "Aspartyl aminopeptidase", "value": "> 73.5 µM (not active)"},
      {"measurement": "EC50", "setting": "[12]", "value": "> 50 µM (active)"},
      {"measurement": "IC50", "setting": "Procathepsin L", "value": "> 59.6 µM (not active)"}
    ]},
    {"smiles": "CCN1C(=O)CS/C1=N/C1C2CC3CC(C2)CC1C3", "note": "(configuration not stated)", "values": [
      {"measurement": "EC50", "setting": "[13]", "value": "> 20 µM (not active)"},
      {"measurement": "EC50", "setting": "[14]", "value": "11.4 µM (active)"}
    ]}
  ]
}
